Data: patent US7375083B2, “Pharmaceutical compositions for prevention of overdose or abuse” (Shire LLC, priority 2003, dated 2008)
Where two headings read alike, the source gives them in different places.

Experiments:
[1] = Oral pharmacokinetics in rats, plasma d-amphetamine by ELISA; conditions: for Percent AUC / Percent Cmax: Oral; for Bioequivalence with amphetamine: rat, oral
[2] = cited from earlier work; for Blood level: 12.5 mg dose
[3] = Intranasal bioavailability of hydrocodone conjugates in rats, LC/MS/MS
[4] = Intravenous bioavailability of hydrocodone conjugates in rats, LC/MS/MS
[5] = Oral bioavailability of hydrocodone conjugates in rats, LC/MS/MS; conditions: for Percent HC (AUC) / Percent HC (Cmax): relative to hydrocodone bitartrate
[6] = Oral plasma levels of oxycodone conjugates in rats, ELISA; conditions: oral 2 mg/kg
[7] = Intranasal plasma levels of oxycodone conjugates in rats, ELISA; conditions: intranasal 2 mg/kg
[8] = relative to amphetamine (first value where two are given)
[9] = male, Sprague-Dawley, rat, plasma, iv, 1 mg/kg
[10] = male, Sprague-Dawley, rat, plasma, other: intranasal, 1 mg/kg
[11] = intravenous, 1 mg/kg hydrocodone base content
[12] = male, Sprague-Dawley, rat, plasma, po, 1 mg/kg
[13] = male, Sprague-Dawley, rat, plasma, po, 2 mg/kg
[14] = male, Sprague-Dawley, rat, plasma, po, 5 mg/kg
[15] = male, Sprague-Dawley, rat, plasma, po, 25 mg/kg
[16] = relative to amphetamine, second of two values printed in the cell
[17] = intranasal, 1 mg/kg dose, hydrocodone plus hydromorphone
[18] = intranasal, 1 mg/kg dose, relative to hydrocodone bitartrate
[19] = intravenous, 1 mg/kg dose, hydrocodone plus hydromorphone
[20] = intravenous, 1 mg/kg dose, relative to hydrocodone bitartrate
[21] = oral, 1 mg/kg dose, hydrocodone plus hydromorphone
[22] = oral, 5 mg/kg dose, hydrocodone plus hydromorphone

With `CC(Cc1ccccc1)NC(=O)C(N)CCC(=O)O` (centres unmarked) [E-Amp] the “Percent AUC” value [1, 8] was 73% and the “Percent Cmax” value [1, 8] was 95%.
For `CC(Cc1ccccc1)NC(=O)[C@H](CCC(=O)O)NC(=O)[C@@H](N)CCC(=O)O` (some centres unmarked) [EE-Amp], the “Percent AUC” value [1, 8] was 26% and the “Percent Cmax” value [1, 8] was 74%.
For `CC(Cc1ccccc1)NC(=O)[C@H](Cc1ccccc1)NC(=O)[C@H](CCC(=O)O)NC(=O)[C@@H](N)CCC(=O)O` (some centres unmarked) [EEF-Amp], the “Percent AUC” value [1, 8] was 42% and the “Percent Cmax” value [1, 8] was 73%.
In the case of `CC(Cc1ccccc1)NC(=O)[C@H](Cc1ccccc1)NC(=O)[C@@H](N)Cc1ccccc1` (some centres unmarked) [FF-Amp], the “Percent AUC” value [1, 8] is reported as 27% and the “Percent Cmax” value [1, 8] is reported as 64%.
With `CC(Cc1ccccc1)NC(=O)CNC(=O)CN` (centres unmarked) [GG-Amp] the “Percent AUC” value [1, 8] was 79% and the “Percent Cmax” value [1, 8] was 88%.
With `CC(Cc1ccccc1)NC(=O)C(N)Cc1cnc[nH]1` (centres unmarked) [H-Amp] the “Percent AUC” value [1, 8] was 16% and the “Percent Cmax” value [1, 8] was 21%.
In the case of `COc1ccc2c3c1O[C@H]1C(=O)CC[C@H]4[C@@H](C2)N(C)CC[C@]314` [Hydrocodone, reference compound], the Therapeutic plasma concentration ([2]; in vivo) is listed as 1 to 30 ng/mL, the Toxic plasma concentration ([2]; in vivo) is listed as “greater than 100 ng/mL” and the AUC [3, 9] is listed as 74.7 ng·h/mL. It also gave a Cmax [3, 9] of 543 ng/mL, a concentration at 0 min [3, 10] of 0 ng/mL and a concentration at 5 min [3, 10] of 441 ng/mL. The concentration at 15 min [3, 10] was 543 ng/mL, the concentration at 30 min [3, 10] was 227 ng/mL and the concentration at 60 min [3, 10] was 96 ng/mL. The “HC (hydrocodone) AUC, Percent relative to hydrocodone bitartrate” value [4, 11] was 100%, the “HC (hydrocodone) Cmax, Percent relative to hydrocodone bitartrate” value [4, 11] was 100% and the AUC [4, 9] was 24.1 ng·h/mL. The Cmax [4, 9] was 43 ng/mL, the AUC [5, 12] was 45.1 ng·h/mL and the Cmax [5, 12] was 114 ng/mL. The concentration at 0 h [5, 12] was 0 ng/mL, the concentration at 0.1 h [5, 12] was 114 ng/mL and the concentration at 0.5 h [5, 12] was 14.3 ng/mL. The concentration at 1 h [5, 12] was 7 ng/mL, the concentration at 2 h [5, 12] was 2.6 ng/mL and the concentration at 4 h [5, 12] was 1 ng/mL. For the same molecule, the AUC [5, 13] was 38.2 ng·h/mL, the Cmax [5, 13] was 60.3 ng/mL and the concentration at 0 h [5, 13] was 0 ng/mL. The concentration at 0.1 h [5, 13] was 60.3 ng/mL, the concentration at 0.5 h [5, 13] was 15.6 ng/mL and the concentration at 1 h [5, 13] was 12.9 ng/mL. For the same molecule, the concentration at 2 h [5, 13] was 3.4 ng/mL, the concentration at 4 h [5, 13] was 1.3 ng/mL and the AUC [5, 14] was 234 ng·h/mL. The Cmax [5, 14] was 629 ng/mL, the concentration at 0 h [5, 14] was 0 ng/mL and the concentration at 0.1 h [5, 14] was 629 ng/mL. For the same molecule, the concentration at 0.5 h [5, 14] was 74.3 ng/mL, the concentration at 1 h [5, 14] was 80.8 ng/mL and the concentration at 2 h [5, 14] was 18.4 ng/mL. It also gave a concentration at 4 h [5, 14] of 4.9 ng/mL, an AUC [5, 15] of 419 ng·h/mL and a Cmax [5, 15] of 409 ng/mL. For the same molecule, the concentration at 0 h [5, 15] was 0 ng/mL, the concentration at 0.1 h [5, 15] was 409 ng/mL and the concentration at 0.5 h [5, 15] was 154 ng/mL. The concentration at 1 h [5, 15] was 86.2 ng/mL, the concentration at 2 h [5, 15] was 83.3 ng/mL and the concentration at 4 h [5, 15] was 57.8 ng/mL.
For `CC(Cc1ccccc1)NC(=O)CNC(=O)[C@@H](N)CCCCN` (some centres unmarked) [KG-Amp], the “Percent AUC” value [1, 8] was 69% and the “Percent Cmax” value [1, 8] was 71%.
In the case of `CC(C)CC(N)C(=O)NC(C)Cc1ccccc1` [L-Amp], the “Percent AUC” value [1, 8] is reported as 65% and the “Percent Cmax” value [1, 8] is reported as 81%.
In the case of `CC(C)C[C@H](N)C(=O)N[C@@H](CCC(=O)O)C(=O)NC(C)Cc1ccccc1` (some centres unmarked) [LE-Amp], the “Percent AUC” value [1, 8] is reported as 40% and the “Percent Cmax” value [1, 8] is reported as 28%.
For `COc1ccc2c3c1O[C@H]1C(=O)CC[C@@]4(O)[C@@H](C2)N(C)CC[C@]314` [Oxycodone], the Therapeutic plasma concentration ([2]; in vivo) is given as 10 to 100 ng/mL and the Toxic plasma concentration ([2]; in vivo) is given as “greater than 200 ng/mL”.
In the case of `CC(Cc1ccccc1)NC(=O)C(N)Cc1ccccc1` (centres unmarked) [Phe-Amp, 2-amino-3-phenylpropanoic acid-(1-methyl-2-phenylethyl)-amide], the Bioequivalence with amphetamine [1] is reported as “bioequivalent with amphetamine”.
For `CC(Cc1ccccc1)NC(=O)C(N)CO` (centres unmarked) [S-Amp], the “Percent AUC” value [1, 8] was 79%, the “Percent Cmax” value [1, 8] was 62% and the “Percent AUC” value [1, 16] was 55%. The “Percent Cmax” value [1, 16] was 75%.
With `CC(Cc1ccccc1)NC(=O)C(N)CO` (centres unmarked) [Ser-Amp, 2-amino-3-hydroxylpropanoic acid-(1-methyl-2-phenylethyl)-amide] the Bioequivalence with amphetamine [1] was “not bioequivalent with amphetamine”.
With `CC[C@H](C)[C@H](NC(=O)[C@H](Cc1ccc(O)cc1)NC(=O)[C@@H](N)Cc1ccc(O)cc1)C(=O)OC1=CC[C@H]2[C@H]3Cc4ccc(OC)c5c4[C@@]2(CCN3C)[C@H]1O5` [YYI-HC, Tyr-Tyr-Ile-Hydrocodone] the “hydrocodone plus hydromorphone concentration” value ([3]; intranasal, 1 mg/kg dose, 5 Minutes) was 31 ng/mL, the “hydrocodone plus hydromorphone concentration” value ([3]; intranasal, 1 mg/kg dose, 15 Minutes) was 17 ng/mL and the “hydrocodone plus hydromorphone concentration” value ([3]; intranasal, 1 mg/kg dose, 30 Minutes) was 12 ng/mL. For the same molecule, the “hydrocodone plus hydromorphone concentration” value ([3]; intranasal, 1 mg/kg dose, 60 Minutes) was 2 ng/mL, the “AUC (ng/ml h) 0-1 h” value [3, 17] was 12 ng·h/mL and the Cmax [3, 17] was 31 ng/mL. For the same molecule, the “Percent HC (AUC)” value [3, 18] was 4%, the “Percent HC (Cmax)” value [3, 18] was 6% and the “hydrocodone plus hydromorphone concentration” value ([4]; intravenous, 1 mg/kg dose, 5 Minutes) was 9 ng/mL. The “hydrocodone plus hydromorphone concentration” value ([4]; intravenous, 1 mg/kg dose, 15 Minutes) was 13 ng/mL, the “hydrocodone plus hydromorphone concentration” value ([4]; intravenous, 1 mg/kg dose, 30 Minutes) was 13 ng/mL and the “hydrocodone plus hydromorphone concentration” value ([4]; intravenous, 1 mg/kg dose, 60 Minutes) was 3 ng/mL. For the same molecule, the “AUC (ng/ml h) 0-1 h” value [4, 19] was 10 ng·h/mL, the Cmax [4, 19] was 13 ng/mL and the “Percent HC (AUC)” value [4, 20] was 7%. For the same molecule, the “Percent HC (Cmax)” value [4, 20] was 6%, the “Percent Decrease 1 mg/kg vs. 5 mg/kg AUC” value ([5]; oral bioavailability) was 41% and the “Percent Decrease 1 mg/kg vs. 5 mg/kg Cmax” value ([5]; oral bioavailability) was 60%. For the same molecule, the “hydrocodone plus hydromorphone concentration” value ([5]; oral, 1 mg/kg dose, 0.5 Hours) was 9.2 ng/mL, the “hydrocodone plus hydromorphone concentration” value ([5]; oral, 1 mg/kg dose, 1.5 Hours) was 4.3 ng/mL and the “hydrocodone plus hydromorphone concentration” value ([5]; oral, 1 mg/kg dose, 3 Hours) was 1.5 ng/mL. For the same molecule, the “hydrocodone plus hydromorphone concentration” value ([5]; oral, 1 mg/kg dose, 5 Hours) was 1.1 ng/mL, the “hydrocodone plus hydromorphone concentration” value ([5]; oral, 1 mg/kg dose, 8 Hours) was 1.8 ng/mL and the “AUC (ng/ml h) 0-8 h” value [5, 21] was 20.4 ng·h/mL. The Cmax [5, 21] was 9.2 ng/mL, the “Percent HC (AUC)” value ([5]; oral, 1 mg/kg dose) was 78% and the “Percent HC (Cmax)” value ([5]; oral, 1 mg/kg dose) was 100%. The “hydrocodone plus hydromorphone concentration” value ([5]; oral, 5 mg/kg dose, 0.5 Hours) was 15 ng/mL, the “hydrocodone plus hydromorphone concentration” value ([5]; oral, 5 mg/kg dose, 1.5 Hours) was 6.3 ng/mL and the “hydrocodone plus hydromorphone concentration” value ([5]; oral, 5 mg/kg dose, 3 Hours) was 3.3 ng/mL. The “hydrocodone plus hydromorphone concentration” value ([5]; oral, 5 mg/kg dose, 5 Hours) was 1.6 ng/mL, the “hydrocodone plus hydromorphone concentration” value ([5]; oral, 5 mg/kg dose, 8 Hours) was 2.7 ng/mL and the “AUC (ng/ml h) 0-8 h” value [5, 22] was 33 ng·h/mL. The Cmax [5, 22] was 15 ng/mL, the “Percent HC (AUC)” value ([5]; oral, 5 mg/kg dose) was 46% and the “Percent HC (Cmax)” value ([5]; oral, 5 mg/kg dose) was 41%. For the same molecule, the “Peak levels and bioavailability” value ([5]; rat, oral, 5 mg/kg) was “substantially decreased”.
With `COc1ccc2c3c1O[C@H]1C(OC(=O)[C@@H](NC(=O)[C@@H]4CCCN4C(=O)[C@@H](N)CCC(=O)O)C(C)C)=CC[C@@]4(OC(=O)[C@@H](NC(=O)[C@@H]5CCCN5C(=O)[C@@H](N)CCC(=O)O)C(C)C)[C@@H](C2)N(C)CC[C@]314` [[Glu-Pro-Val]2-OC] the “% AUC” value [6] was 142%, the “% Cmax” value [6] was 134% and the “% AUC” value [7] was 56%. For the same molecule, the “% Cmax” value [7] was 65%.
For `CC(N)Cc1ccccc1` (centres unmarked) [amphetamine], the Steady-state blood level ([2]; addicts orally consuming an average of 1000 mg per day) is given as 2000 to 3000 ng/mL, the “Blood level at which peripheral effects (increased heart rate) start” value ([2]; in vivo) is given as 20 ng/mL and the Peak blood concentration ([2]; single oral dose of 10 mg, 2 hours) is given as 35 ng/mL.
For `CN[C@@H](C)Cc1ccccc1` [methamphetamine], the Urine concentration ([2]; 10 mg, first 24 hours) is listed as 500-4,000 ng/mL, the Blood level ([2]; 6 hours) is listed as “about 16 ng/mL” and the Blood level ([2]; 24 hours) is listed as “about 10 ng/mL”. The “Amphetamine concentration of methamphetamine abusers, average” value ([2]; abusers) was 1,800 ng/mL, the “Methamphetamine concentration of methamphetamine abusers, average” value ([2]; abusers) was 14,200 ng/mL and the “Amphetamine concentration of methamphetamine abusers” value ([2]; abusers, range) was 1,000-9,000 ng/mL. The “Methamphetamine concentration of methamphetamine abusers” value ([2]; abusers, range) was 2,400-33,300 ng/mL, the Estimated lethal dose ([2]; adults) was 1 g and the Estimated lethal dose ([2]; children) was 0.1 g. The Maximum blood concentration ([2]; single dose of 10 mg, one hour) was 30 ng/mL.
